Source: PubChem BioAssay (NCI)
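These data come from cells grown in 96-well plates and exposed to compound for 48 hours at five concentrations. GI50 = concentration required for 50% inhibition of growth. Definition used: TGI = concentration required for complete inhibition of growth.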

Legend:
Assay in all cases: growth of human tumour cells (NCI), 48 h
[1] = test system: SNB-75 CNS
[2] = test system: NCI-H23 lung
[3] = test system: MDA-MB-231 breast
[4] = test system: HL-60(TB) leukemia
[5] = test system: U251 CNS
[6] = test system: TK-10 renal
[7] = test system: MCF7 breast
[8] = test system: SF-295 CNS
[9] = test system: HT29 colon
[10] = test system: M14 melanoma
[11] = test system: OVCAR-8 ovarian
[12] = test system: ACHN renal
[13] = test system: NCI-H522 lung
[14] = test system: A498 renal
[15] = test system: UACC-62 melanoma
[16] = test system: HCC-2998 colon
[17] = test system: UACC-257 melanoma
[18] = test system: OVCAR-3 ovarian
[19] = test system: HOP-92 NSCLC
[20] = test system: SK-MEL-2 melanoma
[21] = test system: MALME-3M melanoma
[22] = test system: EKVX NSCLC
[23] = test system: NCI-H226 lung
[24] = test system: COLO 205 colon
[25] = test system: HS 578T breast
[26] = test system: IGROV1 ovarian
[27] = test system: UO-31 renal
[28] = test system: SF-539 CNS
[29] = test system: RXF 393 renal
[30] = test system: SK-MEL-28 melanoma
[31] = test system: PC-3 prostate
[32] = test system: HCT-15 colon
[33] = test system: SN12C renal
[34] = test system: SK-MEL-5 melanoma
[35] = test system: MDA-MB-435
[36] = test system: SNB-19 CNS
[37] = test system: NCI-H460 lung
[38] = test system: SW-620 colon
[39] = test system: T-47D breast
[40] = test system: A549 NSCLC
[41] = test system: CAKI-1 renal
[42] = test system: MDA-MB-468 breast
[43] = test system: HCT-116 colon
[44] = test system: OVCAR-5 ovarian
[45] = test system: 786-0 renal
[46] = test system: NCI/ADR-RES ovarian
[47] = test system: MOLT-4 leukemia
[48] = test system: LOX IMVI melanoma
[49] = test system: KM12 colon
[50] = test system: BT-549 breast
[51] = test system: SK-OV-3 ovarian

## O/N=C(\CSc1nnc(-c2c[nH]c3ccccc23)n1-c1ccccc1)c1ccc(Br)cc1
[1]
  GI50: 1.87 µM
  TGI: 4.95 µM
[2]
  GI50: 4.31 µM
  TGI: 19.6 µM
[3]
  GI50: 1.71 µM
  TGI: 3.26 µM
[4]
  GI50: 1.92 µM
  TGI: 4.55 µM
[5]
  GI50: 4.38 µM
  TGI: 17.3 µM
[6]
  GI50: 2.8 µM
  TGI: 7.63 µM
[7]
  GI50: 3.49 µM
  TGI: 15.3 µM
[8]
  GI50: 1.93 µM
  TGI: 4.7 µM
[9]
  GI50: 2.23 µM
  TGI: 5.03 µM
[10]
  GI50: 3.4 µM
  TGI: 17.6 µM
[11]
  GI50: 2.45 µM
  TGI: 6.5 µM
[12]
  GI50: 2.53 µM
  TGI: 7.05 µM
[13]
  GI50: 2.52 µM
  TGI: 7.7 µM
[14]
  GI50: 16.3 µM
  TGI: 51.7 µM
[15]
  GI50: 1.77 µM
  TGI: 3.74 µM
[16]
  GI50: 3.36 µM
  TGI: 12.3 µM
[17]
  GI50: 3.87 µM
  TGI: 17.5 µM
[18]
  GI50: 4.98 µM
  TGI: 23.8 µM
[19]
  GI50: 3.66 µM
  TGI: 24.1 µM
[20]
  GI50: 3.1 µM
  TGI: 10.4 µM
[21]
  GI50: 3.22 µM
  TGI: 14.3 µM
[22]
  GI50: 2.6 µM
  TGI: 9.09 µM
[23]
  GI50: 3.33 µM
  TGI: 14.9 µM
[24]
  GI50: 3.8 µM
  TGI: 16.6 µM
[25]
  GI50: 2.84 µM
  TGI: 11.9 µM
[26]
  GI50: 3.41 µM
  TGI: 11.7 µM
[27]
  GI50: 2.29 µM
  TGI: 7.81 µM
[28]
  GI50: 4.04 µM
  TGI: 14.2 µM
[29]
  GI50: 1.75 µM
  TGI: 3.65 µM
[30]
  GI50: 3.4 µM
  TGI: 12.5 µM
[31]
  GI50: 2.15 µM
  TGI: 4.96 µM
[32]
  GI50: 2.11 µM
  TGI: 4.72 µM
[33]
  GI50: 2.52 µM
  TGI: 7.97 µM
[34]
  GI50: 3.55 µM
  TGI: 12.8 µM
[35]
  GI50: 2.01 µM
  TGI: 3.89 µM
[36]
  GI50: 4.33 µM
  TGI: 19.8 µM
[37]
  GI50: 3.53 µM
  TGI: 12.9 µM
[38]
  GI50: 3.28 µM
  TGI: 12.1 µM
[39]
  GI50: 3.51 µM
  TGI: 17.2 µM
[40]
  GI50: 2.49 µM
  TGI: 6.66 µM
[41]
  GI50: 2.63 µM
  TGI: 8.1 µM
[42]
  GI50: 1.72 µM
  TGI: 3.3 µM
[43]
  GI50: 3.45 µM
  TGI: 17.4 µM
[44]
  GI50: 2.18 µM
  TGI: 5.21 µM
[45]
  GI50: 6.85 µM
  TGI: 27 µM
[46]
  GI50: 1.9 µM
  TGI: 3.91 µM
[47]
  GI50: 2.09 µM
  TGI: 4.8 µM
[48]
  GI50: 1.71 µM
  TGI: 3.12 µM
[49]
  GI50: 4.15 µM
  TGI: 29.2 µM
[50]
  GI50: 3.16 µM
  TGI: 7.25 µM
[51]
  GI50: 2.53 µM
  TGI: 6.03 µM
